{"source": "patent US20050064021A1", "about": "“Medical dressings” (priority 2001, published 2005)", "tested_on": "cells", "test": "cellular adherence to alginate, cell type not stated", "assay_type": "cell-based", "details": "lidocaine present with poloxamer", "data": [{"smiles": "CCN(CC)CC(=O)Nc1c(C)cccc1C", "note": "[lidocaine]", "values": [{"measurement": "cellular adherence properties of alginate", "result": "reduce the cellular adherence properties of alginate, for example, still further"}]}]}
